Experimental data published in paper PMC10481538, “Bioanalytical method validation and application to a phase 1, double-blind, randomized pharmacokinetic trial of a standardized Centella asiatica (L.) Urban water extract product in healthy older adults” (Frontiers in Pharmacology, 2023).
Several values for one entry are separate records, joined by “and”; a condition that tells them apart may be missing. Equal entries are not always repeated. Entries after “also recorded” stand apart in the source; their conditions may differ. Where two headings read alike, the source gives them in different places.

What was measured:
[1] = Phase 1 pharmacokinetic trial of CAP, plasma analysis by HPLC-MS/MS; settings: for AUC(0-t): AUC(0-12)
Procedure: (§1) To each sample of participant plasma or urine, A. aerogenes sulfatase (2.5 µL; 10–20 units/mL), and E. coli glucuronidase (2.5 µL; ∼5,000–50,000 units/mL) were used to release the analytes from their sulfate and β-D-glucuronic acid esters (Phase II metabolites). For calibration and validation samples, aqueous glycerol (5 µL) was added to mimic the enzymatic hydrolysis. For all analyses, 1% ascorbic acid (10 µL) was added prior to sample work up to limit oxidation. Samples were incubated (37°C) for 20 min and placed on ice to halt enzymatic activity. […] The supernatant was filtered (0.22 µm spinfilter) at 10,000 g for 5 min at 4°C and used for analysis. To optimize peak shape during analysis, the concentration of organic solvent (sample filtrate) was adjusted to a 60:40 ratio with HPLC grade water for TT analysis and a 90:10 ratio with 1% aqueous formic acid for CQA analysis.
(§2) HPLC-MS/MS was performed at the Oregon Health & Science University’s (OHSU) Bioanalytical Shared Resource/Pharmacokinetics Core (Portland, OR, United States). […] Chromatographic separation was achieved using a Poroshell 120 EC18 column (3 mm id × 50 mm; 2.7 µ) and a Poroshell ultra high-performance liquid chromatography (UHPLC) guard column (3.0 mm i.d. Å∼ 5 mm, 2.7 μ) (Agilent, Santa Clara, CA, United States). The injection volume was 20 μL and flow rate was 0.42 mL/min. Gradient elution was performed using a mobile phase of solvent A (water containing 10 mM ammonium acetate and 0.02% ammonium hydroxide; pH 8.5) and solvent B (methanol). […] Chromatographic separation was achieved using a Zorbax Eclipse plus C8 Rapid resolution (4.6 i.d. Å∼ 150 mm, 3.5 μ) column with a Zorbax Eclipse plus C8 Rapid resolution (4.6 i.d. Å∼ 12.5 mm, 5 μ) guard column (Agilent, Santa Clara, CA, United States). The injection volume was 5 μL and flow rate of 0.8 mL/min. Gradient elution was performed using a mobile phase of solvent A (water containing 0.05% v/v acetic acid) and solvent B (acetonitrile with 0.05% v/v acetic acid).
(§3) Briefly, two in-person study visits occurred a minimum of two weeks and a maximum of four weeks apart in which participants orally consumed 2 or 4 g of CAP (in a randomized order) on an empty stomach. Total study duration was eight weeks including follow-up adverse event monitoring. All study procedures were identical for each visit except for the CAP dose administered. Randomization (to prevent tolerance effects) was performed using an arm equivalence design by the OHSU Research Pharmacy. All study personnel were blind to randomization allocation until all data analysis had been finalized. […] Participants fasted for 10 h, excluding water, prior to each study visit and for 2 h after consuming the study intervention to standardize gastrointestinal transit time and minimize food effects. During study visits, participants were provided low-phytochemical snacks and meals by the OCTRI CTRC’s Bionutrition Unit devoid of the foods outlined in Section 2.5. At each study visit, a peripheral intravenous catheter was placed in the arm to allow for repeat blood sampling. Prior to CAP intake, 20 mL of baseline blood and 50 mL of baseline urine were collected. […] Plasma aliquots (2 mL) were frozen and stored at -80°C until analysis. […] A 50 mL aliquot was retained and frozen at −80°C for renal excretion analysis.
(§4) Sample preparation and analysis: Plasma and urine sample preparation and analyte quantification by LC-MS/MS were performed in duplicate for each time point and visit (Sections 2.2–2.4). Due to the possibility of residual interference from the participant’s diet and unique, individual matrix effects, calibration curves were generated for each participant using their baseline plasma collected at the corresponding visit.

[2] = n = 7, mean (SEM)
Procedure: as §1, §2, §3, §4

[3] = Analyte storage stability in human urine
Procedure: (§5) Analytes were mixed with 50 µL of charcoal treated plasma (n = 5) or urine (n = 5) and placed in each of the following storage conditions: 1) long-term storage (two weeks at −80°C); 2) three freeze-thaw cycles during a two-week period stored at −80°C; 3) 4°C for 24 h; and 4) fresh preparation for same day analysis. All samples were processed together for analysis. Calibration curves generated from storage condition 4 samples were used to determine the concentration of analyte present in each storage condition. The percent difference from samples in condition 4 was used to determine stability.

[4] = Analyte storage stability in human plasma
Procedure: as §5

[5] = older adults on cholinesterase inhibitors, ref Wright et al., 2022, cited from earlier work
[6] = ref Songvut et al., 2019, cited from earlier work; for Cmax: Songvut et al., 2021; for Tmax: encapsulated ECa 233, healthy adults
[7] = capsular form; ref Grimaldi et al., 1990; Leng et al., 2013; Wright et al., 2022; cited from earlier work
[8] = single oral 2 g CAW (CAP), n = 7, mean (SEM)
[9] = single oral 4 g CAW (CAP), n = 7, mean (SEM)
[10] = condition 1 long-term storage at −80°C, low concentration
[11] = both, human, plasma, po, 2 g, single oral 2 g CAW (CAP), n = 7, mean (SEM)
[12] = both, human, plasma, po, 2 g, Cmax, single oral 2 g CAW (CAP), healthy older adults, n = 7, plasma, mean (SEM), ^ = below LLoQ
[13] = both, human, plasma, po, 2 g, T1/2, single oral 2 g CAW (CAP), n = 7, mean (SEM)
[14] = both, human, plasma, po, 2 g, Tmax, single oral 2 g CAW (CAP), n = 7, mean (SEM)
[15] = both, human, plasma, po, 4 g, single oral 4 g CAW (CAP), n = 7, mean (SEM)
[16] = both, human, plasma, po, 4 g, Cmax, single oral 4 g CAW (CAP), healthy older adults, n = 7, plasma, mean (SEM), ^ = below LLoQ
[17] = both, human, plasma, po, 4 g, T1/2, single oral 4 g CAW (CAP), n = 7, mean (SEM)
[18] = condition 1 long-term storage at −80°C, medium concentration
[19] = condition 2 freeze-thaw, low concentration
[20] = condition 2 freeze-thaw, medium concentration
[21] = condition 2 freeze-thaw, high concentration

**Q.** For `COc1cc(/C=C/C(=O)O)ccc1O` [FA, ferulic acid], which Cmax ([1]; single oral 2 g CAW (CAP), healthy older adults, n = 7, plasma, mean (SEM), ^ = below LLoQ) is on record?
**A.** Its Cmax is 1.5 (0.3) ng/mL.

**Q.** And the “AUC(0-12)” value [1, 8]?
**A.** The value was 11.3 (2.9) ng/mL*hr.

**Q.** What about the T1/2 [1, 8] of the same molecule?
**A.** Its T1/2 is 14.1 (3.9) hr.

**Q.** What about the Tmax [1, 8] of the same molecule?
**A.** Its Tmax is 5.9 (1.3) hr.

**Q.** What about the Cmax ([1]; single oral 4 g CAW (CAP), healthy older adults, n = 7, plasma, mean (SEM), ^ = below LLoQ) of the same molecule?
**A.** The Cmax was 1.5 (0.6) ng/mL.

**Q.** What about the “AUC(0-12)” value [1, 9] of the same molecule?
**A.** Its value is 9.9 (2.8) ng/mL*hr.

**Q.** And the T1/2 [1, 9]?
**A.** The T1/2 was 2.9 (1.3) hr.

**Q.** And the Tmax [1, 9]?
**A.** Its Tmax is 7.1 (1.2) hr.

**Q.** What about the “Total urinary excretion (12 hr)” value ([2]; single oral 2 g CAW (CAP)) of the same molecule?
**A.** Its value is 146.8 (33.5) µg.

**Q.** And the “Total urinary excretion (12 hr)” value ([2]; single oral 4 g CAW (CAP))?
**A.** The value was 137.4 (24.6) µg.

**Q.** What about the “Stability, percent of nominal concentration” value (“Stability, percent” for short) [3, 10] of the same molecule?
**A.** Its value is 81%.

**Q.** What about the “Stability, percent” value ([4]; condition 1 long-term storage at -80°C, low concentration) of the same molecule?
**A.** The value was 129%.

**Q.** For `O=C(O)CCc1cccc(O)c1` [HPP, 3-(3-hydroxyphenyl) propionic acid], which AUC(0-t) [1, 11] is on record?
**A.** Its AUC(0-t) is 0.0568 µg·h/mL.

**Q.** What about the Cmax [1, 12] of the same molecule?
**A.** Its Cmax is 0.0058 µg/mL.

**Q.** And the half-life [1, 13]?
**A.** The half-life was 5 h.

**Q.** What about the Tmax [1, 14] of the same molecule?
**A.** Its Tmax is 7.4 h.

**Q.** What about the AUC(0-t) [1, 15] of the same molecule?
**A.** The AUC(0-t) was 0.0502 µg·h/mL.

**Q.** And the Cmax [1, 16]?
**A.** The Cmax was 0.0106 µg/mL.

**Q.** What about the half-life [1, 17] of the same molecule?
**A.** The half-life was 2.6 h.

**Q.** What about the Tmax ([1]; both, human, plasma, po, 4 g, Tmax, single oral 4 g CAW (CAP), n = 7, mean (SEM)) of the same molecule?
**A.** The Tmax was 5.7 h.

**Q.** What about the “Total urinary excretion (12 hr)” value ([2]; single oral 2 g CAW (CAP)) of the same molecule?
**A.** Its value is 223.4 (76.7) µg.

**Q.** What about the “Total urinary excretion (12 hr)” value ([2]; single oral 4 g CAW (CAP)) of the same molecule?
**A.** The value was 247.9 (73.6) µg.

**Q.** And the “Stability, percent” value [3, 10]?
**A.** Its value is 48%.

**Q.** And the “Stability, percent” value [3, 18]?
**A.** Its value is 81%.

**Q.** What about the “Stability, percent” value [3, 19] of the same molecule?
**A.** The value was 96%.

**Q.** Which AUC(0-t) [1, 11] does the source give for `COc1ccc(/C=C/C(=O)O)cc1O` [IFA, isoferulic acid] here?
**A.** The AUC(0-t) was 0.0053 µg·h/mL.

**Q.** And the Cmax [1, 12]?
**A.** The Cmax was 0.0015 µg/mL.

**Q.** And the half-life [1, 13]?
**A.** The half-life was 7 h.

**Q.** And the Tmax [1, 14]?
**A.** The Tmax was 2.4 h.

**Q.** And the AUC(0-t) [1, 15]?
**A.** The AUC(0-t) was 0.0074 µg·h/mL.

**Q.** What about the Cmax [1, 16] of the same molecule?
**A.** The Cmax was 0.0015 µg/mL.

**Q.** What about the half-life [1, 17] of the same molecule?
**A.** Its half-life is 3.5 h.

**Q.** What about the “Total urinary excretion (12 hr)” value ([2]; single oral 2 g CAW (CAP)) of the same molecule?
**A.** The value was 65.9 (23.1) µg.

**Q.** And the “Stability, percent” value ([3]; condition 1 long-term storage at −80°C, high concentration)?
**A.** Its value is 84%.

**Q.** What about the “Stability, percent” value [3, 19] of the same molecule?
**A.** Its value is “less than 115%”.

**Q.** And the “Stability, percent” value [3, 20]?
**A.** Its value is 80%.

**Q.** What about the “Stability, percent” value ([4]; condition 2 three freeze-thaw cycles, medium concentration) of the same molecule?
**A.** Its value is 117%.

**Q.** With `C[C@H]1[C@H](C)CC[C@]2(C(=O)O)CC[C@]3(C)C(=CC[C@@H]4[C@@]5(C)C[C@@H](O)[C@H](O)[C@@](C)(CO)[C@@H]5[C@H](O)C[C@]43C)[C@H]12` [MA, madecassic acid] as the molecule, how does the Cmax ([1]; both, human, in vivo, po) read?
**A.** Its Cmax is 0.107 to 0.197 µg/mL.

**Q.** And the Tmax ([1]; both, human, in vivo, po)?
**A.** Its Tmax is 2.2 to 2.8 h.

**Q.** What about the Cmax ([1]; both, human, in vivo, po, 2 g) of the same molecule?
**A.** The Cmax was 210 nM and 107 ng/mL.

**Q.** And the Tmax ([1]; both, human, in vivo, po, 2 g)?
**A.** Its Tmax is 2.4 h.

**Q.** What about the half-life ([1]; both, human, in vivo, po, 2 g) of the same molecule?
**A.** The half-life was 9.2 h.

**Q.** What about the Cmax ([1]; both, human, in vivo, po, 4 g) of the same molecule?
**A.** Its Cmax is 390 nM and 197 ng/mL.

**Q.** And the Tmax ([1]; both, human, in vivo, po, 4 g)?
**A.** The Tmax was 2.7 h.

**Q.** And the half-life ([1]; both, human, in vivo, po, 4 g)?
**A.** Its half-life is 6.7 h.

**Q.** And the Cmax ([5]; 2 g CAP)?
**A.** Its Cmax is 0.038 µg/mL.

**Q.** What about the Cmax ([5]; 4 g CAP) of the same molecule?
**A.** The Cmax was 0.063 µg/mL.

**Q.** What about the Cmax ([6]; ECa 233 250 mg) of the same molecule?
**A.** The Cmax was 0.04 µg/mL.

**Q.** And the Cmax ([6]; ECa 233 500 mg)?
**A.** The Cmax was 0.052 µg/mL.

**Q.** And the Tmax [6]?
**A.** Its Tmax is 1.5 h.

**Q.** What about the Cmax ([6]; read-out: Cmax (molar), ECa 233 250 mg) of the same molecule?
**A.** The Cmax was 0.08 µM.

**Q.** What about the Cmax ([6]; read-out: Cmax (molar), ECa 233 500 mg) of the same molecule?
**A.** The Cmax was 0.1 µM.

**Q.** And the Tmax [7]?
**A.** The Tmax was 4 to 4.5 h.

**Q.** And the “Stability, percent” value [3, 21]?
**A.** The value was 80%.

**Q.** And the “Stability, percent” value ([4]; condition 2 three freeze-thaw cycles, low concentration)?
**A.** The value was 100%.

**Q.** What does the source list for madecassoside [MS]?
**A.** Detection in plasma ([1]; after 2 or 4 g CAP, oral): not detected; also recorded: below the LoD; Total urinary excretion (12 hr) ([2]; single oral 2 g CAW (CAP)): Not detected; Total urinary excretion (12 hr) ([2]; single oral 4 g CAW (CAP)): Not detected; Tmax [6]: 1 to 2 h; Stability, percent of nominal concentration [3, 10]: 57%; Stability, percent of nominal concentration [3, 18]: 84%; Stability, percent of nominal concentration [3, 21]: 82%; Stability, percent of nominal concentration [3, 20]: 78%
